Patent EP4691468A1, “PHARMACEUTICAL COMPOSITION FOR TREATING INFLAMMATORY BOWEL DISEASE” (EA Pharma Co., Ltd., priority 2023, dated 2024)
Where “and” joins values, the source holds several entries; their conditions need not be identical. Equal entries are not always repeated. Where two headings read alike, the source gives them in different places.

Experiments:
[1] = for 24-Hour Post-Dose Trough Values of Compound (2) after Repeated Administration / Average Plasma Concentrations of Compound (2) on Day 10 of Repeated Administration: Compound (1) 400 mg once daily L-SEDDS
Description: (§1) A phase 1 clinical trial was conducted to evaluate the safety, tolerability, and pharmacokinetics of Compound (1) when orally administered to healthy adult males.
(§2) This clinical trial was a single-center, randomized, double-blind, placebo-controlled, single and multiple ascending dose study with the primary objective of evaluating the safety and tolerability of Compound (1) when orally administered to healthy adult males.
(§3) The subjects in each cohort consisted of 8 people, of which 6 were assigned to Compound (1) and 2 were assigned to placebo, and they were administered the drug.
Day 8, when repeated administration was started, corresponds to administration day 1 (Day 1), and day 17 corresponds to administration day 10 (Day 10).
(§4) The plasma concentration of Compound (2) was measured using a validated measurement method. Specifically, plasma was separated from collected blood and processed, and then the plasma concentration was measured by an LC/MS/MS apparatus.
For twice-daily administration of C-SEDDS, blood was further collected at 13, 14, 14.5, and 16 hours later to quantify Compound (2).

[2] = PK Simulation Analysis 2 by superposition method (200 mg twice daily); parameters: species or system human; conditions: day 10 of repeated administration
Description: The plasma concentration of Compound (2) on day 10 of repeated administration at 200 mg twice daily (every 12 hours) was predicted using the superposition method implemented in the Nonparametric Superposition (NPS) tool of the analysis software Phoenix WinNonlin, applying the results of once-daily administration at 200 mg (Certara L.P.) (Fig. 6). Table 6: Predicted Plasma Concentration (ng/mL) of Compound (2) on Day 10 of Repeated Administration Twice Daily

[3] = Phase 1 single-dose administration study: plasma concentration of Compound (2) by LC/MS/MS; conditions: oral, single dose
Description: as §1, §2, §3, §4
Compound (1) was orally administered once to 6 healthy adult males per dose and dosage form at doses of 6, 20, 100, 200, and 400 mg in the form of hard capsules (CAP), liquid self-emulsifying drug delivery system (L-SEDDS), or soft capsule self-emulsifying drug delivery system (C-SEDDS).

[4] = Measured Value, Repeated, Once daily, 400/L-SEDDS, day 10

## Cc1cc(=O)n(-c2ccc(C[C@H](NC(=O)c3cc(F)c(NS(=O)(=O)c4ccc(NC(=O)C(C)(C)C)cc4)cc3F)C(=O)O)cn2)c(=O)n1C [Compound (2)]
[1]; Day 1
  24-Hour Post-Dose Trough Values of Compound (2) after Repeated Administration: 5.092 ng/mL
[1]; Day 2
  24-Hour Post-Dose Trough Values of Compound (2) after Repeated Administration: 10.90 ng/mL
[1]; Day 3
  24-Hour Post-Dose Trough Values of Compound (2) after Repeated Administration: 10.60 ng/mL
[1]; Day 4
  24-Hour Post-Dose Trough Values of Compound (2) after Repeated Administration: 14.21 ng/mL
[1]; Day 5
  24-Hour Post-Dose Trough Values of Compound (2) after Repeated Administration: 19.56 ng/mL
[1]; Day 6
  24-Hour Post-Dose Trough Values of Compound (2) after Repeated Administration: 17.27 ng/mL
[1]; Day 7
  24-Hour Post-Dose Trough Values of Compound (2) after Repeated Administration: 19.85 ng/mL
[1]; Day 8
  24-Hour Post-Dose Trough Values of Compound (2) after Repeated Administration: 22.03 ng/mL
[1]; Day 9
  24-Hour Post-Dose Trough Values of Compound (2) after Repeated Administration: 22.80 ng/mL
[1]; Day 10
  24-Hour Post-Dose Trough Values of Compound (2) after Repeated Administration: 13.04 ng/mL
[1]; Day 10, Time 0.5 h
  Average Plasma Concentrations of Compound (2) on Day 10 of Repeated Administration: 23.82 ng/mL
[1]; Day 10, Time 1 h
  Average Plasma Concentrations of Compound (2) on Day 10 of Repeated Administration: 43.52 ng/mL
[1]; Day 10, Time 1.5 h
  Average Plasma Concentrations of Compound (2) on Day 10 of Repeated Administration: 44.71 ng/mL
[1]; Day 10, Time 2 h
  Average Plasma Concentrations of Compound (2) on Day 10 of Repeated Administration: 40.35 ng/mL
[1]; Day 10, Time 2.5 h
  Average Plasma Concentrations of Compound (2) on Day 10 of Repeated Administration: 34.19 ng/mL
[1]; Day 10, Time 3 h
  Average Plasma Concentrations of Compound (2) on Day 10 of Repeated Administration: 32.09 ng/mL
[1]; Day 10, Time 4 h
  Average Plasma Concentrations of Compound (2) on Day 10 of Repeated Administration: 28.31 ng/mL
[1]; Day 10, Time 5 h
  Average Plasma Concentrations of Compound (2) on Day 10 of Repeated Administration: 25.14 ng/mL
[1]; Day 10, Time 6 h
  Average Plasma Concentrations of Compound (2) on Day 10 of Repeated Administration: 17.77 ng/mL
[1]; Day 10, Time 7 h
  Average Plasma Concentrations of Compound (2) on Day 10 of Repeated Administration: 14.77 ng/mL
[1]; Day 10, Time 8 h
  Average Plasma Concentrations of Compound (2) on Day 10 of Repeated Administration: 13.57 ng/mL
[1]; Day 10, Time 12 h
  Average Plasma Concentrations of Compound (2) on Day 10 of Repeated Administration: 16.86 ng/mL
[1]; Day 10, Time 15 h
  Average Plasma Concentrations of Compound (2) on Day 10 of Repeated Administration: 11.33 ng/mL
[1]; Day 10, Time 21 h
  Average Plasma Concentrations of Compound (2) on Day 10 of Repeated Administration: 15.69 ng/mL
[1]; Day 10, Time 24 h
  Average Plasma Concentrations of Compound (2) on Day 10 of Repeated Administration: 13.04 ng/mL
[1]; Initial Value
  24-Hour Post-Dose Trough Values of Compound (2) after Repeated Administration: 0.000 ng/mL
[1]; L-SEDDS 400 mg once daily, versus single-dose administration
  increase of plasma concentration (trough value) after 24 hours on the 10th day of repeated administration: more than threefold
[1]; [4]
  Judgment Trough Value: A (IC90 (6.9 ng/mL) or higher)
  Plasma Concentration Trough Value: 13.04 ng/mL and 13.0 ng/mL
[2]
  predicted trough value for 200 mg twice daily compared to measured trough value after 400 mg once daily: about twice
[3]; Compound (1) 6 mg CAP, Time 1 h
  Average Plasma Concentrations of Compound (2) after Single-Dose Administration: 0.121 ng/mL
[3]; Compound (1) 6 mg CAP, Time 1.5 h
  Average Plasma Concentrations of Compound (2) after Single-Dose Administration: 0.350 ng/mL
[3]; Compound (1) 6 mg CAP, Time 2 h
  Average Plasma Concentrations of Compound (2) after Single-Dose Administration: 0.448 ng/mL
[3]; Compound (1) 6 mg CAP, Time 2.5 h
  Average Plasma Concentrations of Compound (2) after Single-Dose Administration: 0.536 ng/mL
[3]; Compound (1) 6 mg CAP, Time 3 h
  Average Plasma Concentrations of Compound (2) after Single-Dose Administration: 0.554 ng/mL
[3]; Compound (1) 6 mg CAP, Time 4 h
  Average Plasma Concentrations of Compound (2) after Single-Dose Administration: 0.590 ng/mL
[3]; Compound (1) 6 mg CAP, Time 5 h
  Average Plasma Concentrations of Compound (2) after Single-Dose Administration: 0.424 ng/mL
[3]; Compound (1) 6 mg CAP, Time 6 h
  Average Plasma Concentrations of Compound (2) after Single-Dose Administration: 0.313 ng/mL
[3]; Compound (1) 6 mg CAP, Time 7 h
  Average Plasma Concentrations of Compound (2) after Single-Dose Administration: 0.209 ng/mL
[3]; Compound (1) 6 mg CAP, Time 8 h
  Average Plasma Concentrations of Compound (2) after Single-Dose Administration: 0.127 ng/mL
[3]; Compound (1) 6 mg CAP, Time 12 h
  Average Plasma Concentrations of Compound (2) after Single-Dose Administration: 0.075 ng/mL
[3]; Compound (1) 20 mg CAP, Time 1 h
  Average Plasma Concentrations of Compound (2) after Single-Dose Administration: 0.211 ng/mL
[3]; Compound (1) 20 mg CAP, Time 1.5 h
  Average Plasma Concentrations of Compound (2) after Single-Dose Administration: 0.585 ng/mL
[3]; Compound (1) 20 mg CAP, Time 2 h
  Average Plasma Concentrations of Compound (2) after Single-Dose Administration: 0.768 ng/mL
[3]; Compound (1) 20 mg CAP, Time 2.5 h
  Average Plasma Concentrations of Compound (2) after Single-Dose Administration: 1.023 ng/mL
[3]; Compound (1) 20 mg CAP, Time 3 h
  Average Plasma Concentrations of Compound (2) after Single-Dose Administration: 0.926 ng/mL
[3]; Compound (1) 20 mg CAP, Time 4 h
  Average Plasma Concentrations of Compound (2) after Single-Dose Administration: 0.817 ng/mL
[3]; Compound (1) 20 mg CAP, Time 5 h
  Average Plasma Concentrations of Compound (2) after Single-Dose Administration: 0.702 ng/mL
[3]; Compound (1) 20 mg CAP, Time 6 h
  Average Plasma Concentrations of Compound (2) after Single-Dose Administration: 0.567 ng/mL
[3]; Compound (1) 20 mg CAP, Time 7 h
  Average Plasma Concentrations of Compound (2) after Single-Dose Administration: 0.533 ng/mL
[3]; Compound (1) 20 mg CAP, Time 8 h
  Average Plasma Concentrations of Compound (2) after Single-Dose Administration: 0.507 ng/mL
[3]; Compound (1) 20 mg CAP, Time 12 h
  Average Plasma Concentrations of Compound (2) after Single-Dose Administration: 0.351 ng/mL
[3]; Compound (1) 20 mg CAP, Time 15 h
  Average Plasma Concentrations of Compound (2) after Single-Dose Administration: 0.338 ng/mL
[3]; Compound (1) 20 mg CAP, Time 21 h
  Average Plasma Concentrations of Compound (2) after Single-Dose Administration: 0.339 ng/mL
[3]; Compound (1) 20 mg CAP, Time 24 h
  Average Plasma Concentrations of Compound (2) after Single-Dose Administration: 0.245 ng/mL
[3]; Compound (1) 100 mg CAP, Time 1 h
  Average Plasma Concentrations of Compound (2) after Single-Dose Administration: 0.556 ng/mL
[3]; Compound (1) 100 mg CAP, Time 1.5 h
  Average Plasma Concentrations of Compound (2) after Single-Dose Administration: 1.274 ng/mL
[3]; Compound (1) 100 mg CAP, Time 2 h
  Average Plasma Concentrations of Compound (2) after Single-Dose Administration: 1.864 ng/mL
[3]; Compound (1) 100 mg CAP, Time 2.5 h
  Average Plasma Concentrations of Compound (2) after Single-Dose Administration: 2.343 ng/mL
[3]; Compound (1) 100 mg CAP, Time 3 h
  Average Plasma Concentrations of Compound (2) after Single-Dose Administration: 2.246 ng/mL
[3]; Compound (1) 100 mg CAP, Time 4 h
  Average Plasma Concentrations of Compound (2) after Single-Dose Administration: 2.465 ng/mL
[3]; Compound (1) 100 mg CAP, Time 5 h
  Average Plasma Concentrations of Compound (2) after Single-Dose Administration: 2.331 ng/mL
[3]; Compound (1) 100 mg CAP, Time 6 h
  Average Plasma Concentrations of Compound (2) after Single-Dose Administration: 1.906 ng/mL
